Results published in patent publication US20040126418A1, “Transdermal administration of MENT” (The Population Council, Inc., priority 1997, published 2004).

How the values were obtained:
[1] = In vitro permeation (flux) across rat skin, modified Franz diffusion cell; format: in vitro ADME, Sprague-Dawley rats
Excerpt: The flux of a specific formulation can be determined using a modified Franz diffusion cell as discussed herein. First, skin from female Sprague-Dawley rats (200-250 g body weight) can be obtained. The rats are anesthetized, the abdominal skin shaved and then excised. Excess fat and connective tissues are removed. The skin (1.77 cm^2) is sandwiched between the two chambers of a modified Franz diffusion cell, with the surface of the skin facing the upper (donor) chamber of the cell. A measured amount of the androgen containing formulation is applied to the surface of the skin, so that the skin is completely covered. The lower (recipient) chamber is filled with sterile saline, which completely bathes the lower surface of the rat skin. The contents of the recipient chamber are constantly stirred with a magnetic stirrer. Aliquots of the saline in the recipient chamber is removed at predetermined intervals and analyzed by HPLC. The saline remains in constant contact with the skin at all times. The Franz cell is maintained at 37° C. for the duration of each test.
An in vitro modified Franz cell system as described in Example 2 was used to study the permeability of testosterone and MENT from various transdermal dosage forms through rat skin. Various topical cream, gel and patch formulations were tested. The concentration of testosterone and MENT in all of the gels and creams described herein was 2 mg per gram of gel or cream. The following formulations were tested: […]
The gel (nearly identical to formulation T from Example 1) was produced by taking all of the aqueous components and mixing them under medium agitation in one vessel and all the organic, non-aqueous materials and mixing them in a separate vessel. The organic mixture and aqueous mixture were then mixed together using medium agitation provided by a paddle mixer. Of course, a lightning mixer or magnetic stirrer could also be used. The viscosity profile of the gel produced is illustrated in FIG. 20. Steroid permeation (in vitro) across Rat Skin for each of these gel formulations were tested using a two chambers of a modified Franz diffusion cell as previously described. Skin from female Sprague-Dawley rats (200-250 g body weight) were used in these studies. The rats were anesthetized, the abdominal skin was shaved and excised. Excess fat and connective tissues were removed. The skin (1.77 cm^2) was sandwiched between the two chambers of a modified Franz diffusion cell, with the surface of the skin facing the upper (donor) chamber of the cell. Approximately 0.5 gm of gel (1 mg steroid) was applied to the surface of the skin, so that the skin was completely covered with the gel. The lower (recipient) chamber was filled with 11.4 ml of sterile saline, which completely bathed the lower surface of the rat skin. The contents of the recipient chamber was constantly stirred with a magnetic stirrer during the experiment. Aliquots of 200 μL of the saline in the recipient chamber were removed at intervals of 1 h for 4 h; and analyzed by HPLC for either MENT on T. The saline remained in constant contact with the skin at all times. The Franz cell was maintained at 37° C. for the duration of the test.

[2] = Bioavailability of transdermal MENT gel formulations in rabbits (serum MENT by radioimmunoassay); format: in vivo, New Zealand white rabbits
Description: The bioavailability of three transdermal MENT gel formulations (2 mg MENT/g gel) (formulations O, F and T) were studied in rabbits. Three New Zealand white rabbits weighing 3.5-4.5 kg were used in each group. To each animal, 0.2 g gel (0.4 mg MENT) or 0.4 g gel (0.8 mg MENT) was applied to 5×5 cm or 10×10 cm area of shaved skin for three consecutive days. On days 1 and 3, blood samples were collected at 0, 1, 2, 4 and 8 hours after application of the gel. Serum MENT levels were determined by radioimmunoassay.

C[C@@H]1CC2=CC(=O)CC[C@@H]2[C@H]2CC[C@]3(C)[C@@H](O)CC[C@H]3[C@@H]21 [MENT, 7α-methyl-19-nortestosterone]
Permeation (concentrations and flux rates) through rat skin compared with testosterone ([1]; all other formulations (1 patch, 2 creams and 7 gels), FIGS. 3 to 7 and 9 to 13): considerably higher concentrations and flux rates than that of testosterone | Flux across rat skin compared with testosterone ([1]; certain dosage forms (FIGS. 3, 4, 6, 7, 10, 11 and 12)): more than double that of testosterone | Rate of skin penetration compared with T ([1]; gel of Example 2, 0.5 gm gel (1 mg steroid), 1-4 h, FIG. 1): faster rate than T | Steroid flux compared with T ([1]; gel of Example 2, each time period studied, FIG. 2): greater at each time period studied | Flux compared with MENT Ac ([1]; general statement, no data shown): generally greater than that of MENT Ac | Flux compared with testosterone ([1]; summary statement, depending upon the particular transdermal formulation): as much as twice that of testosterone or more | Dose dependence of bioavailability ([2]; 0.4 vs 0.8 mg MENT, Table 1): dose dependent | Permeation through rabbit skin / serum levels ([2]; gel formulations O, F and T, FIGS. 14 to 19): permeated through rabbit skin and give measurable serum levels
